# Source: US20240092835A1, “NOVEL PEPTIDES CAPABLE OF ALTERING NK CELL ACTIVITY” (Massachusetts Institute of Technology, priority 2022, published 2024)
# Where no end group is shown, it is not given here.
# How the values were obtained:
# NKG2A+/NKG2C− NK cells = experiment: NK cell activation markers in NKG2A+/NKG2C- NK cells incubated with peptide and K562 expressing HLA-E (inhibition); assay type: cell-based, human; details: for percentage of CCL3+ NK cells / percentage of CD107a+ NK cells / percentage of IFNG+ NK cells / percentage of TNF+ NK cells: NKG2A+/NKG2C- NK cells, K562/HLA-E
# Method in brief: (§1)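 Percent-positive cells for NK activation surface markers were measured after NK cells met peptide-treated K562 cells expressing HLA-E. A decrease in that fraction was scored as inhibition and an increase as activation; NKG2A−/NKG2C− cells served as controls.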
# NKG2A−/NKG2C+ NK cells = experiment: NK cell activation markers in NKG2A-/NKG2C+ NK cells incubated with peptide and K562 expressing HLA-E (activation); assay type: cell-based, human; details: for percentage of CCL3+ NK cells / percentage of CD107+ NK cells / percentage of IFNG+ NK cells / percentage of TNF+ NK cells: NKG2A-/NKG2C+ NK cells, K562/HLA-E
# Method in brief: as §1
# NKG2A−/NKG2C− NK cells = experiment: NK cell activation markers in control NKG2A-/NKG2C- NK cells incubated with peptide and K562 expressing HLA-E; assay type: cell-based, human
# Method in brief: as §1
# CD94/NKG2A = CD94/NKG2A (Homo sapiens, UniProt P26715+Q13241); experiment: Steady-state surface plasmon resonance of peptide-HLA-E complex with CD94/NKG2A; assay type: binding; details: for Binding of peptide-HLA-E complexes to CD94/NKG2A normalized to a theoretical Rmax: steady-state SPR
# Method: Binding affinity of novel peptides linked to HLA-E was determined using surface plasmon resonance (SPR), a methodology used to study protein-protein interactions (Tables 15-19). The peptide-HLA-E complex (generated as a single chain trimer) was immobilized on the sensor chip surface and CD94/NKG2A or CD94/NKG2C were flowed over. Steady-state surface plasmon resonance experiments were performed with a Biacore T200 instrument. CD94/NKG2x in HBS-EP+ buffer was injected as analyte in a concentration range of 0.1 μM to 102.4 μM and flow rate of 10 μL/min at 25° C. Data was fit with Prism 9.4 (GraphPad Software Inc; San Diego CA) to a “one site, specific binding” model. Series S CM5 chips were coupled to neutravidin and utilized. Biotinylated pMHC was immobilized at approximately 400 RU. KD values calculated by Biacore software are reported. Rmax, fit values were calculated by Biacore software. Rmax, theoretical values were calculated using the analyte/ligand mass ratio (0.66) multiplied by the amount of ligand coupled to the chip.
# [1] = K562 expressing HLA-E, CD107a, IFNG, TNF, CCL3
# Sequence of CD94/NKG2A (P26715 94-233 limits assumed): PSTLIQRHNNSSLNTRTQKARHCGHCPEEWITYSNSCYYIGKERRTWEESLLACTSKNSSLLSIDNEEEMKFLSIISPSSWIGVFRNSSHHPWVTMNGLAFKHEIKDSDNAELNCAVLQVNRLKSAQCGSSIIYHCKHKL
# Sequence of CD94/NKG2A (Q13241 32-179 limits assumed): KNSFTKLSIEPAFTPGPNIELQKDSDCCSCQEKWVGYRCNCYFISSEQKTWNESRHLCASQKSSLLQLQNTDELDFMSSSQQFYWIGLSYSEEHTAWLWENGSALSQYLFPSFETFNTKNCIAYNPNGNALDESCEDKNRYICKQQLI
sequence,measurement,setting,value
"TLPKRGLFL [human2, TLPKRGLFL]",effect on NKG2A+/NKG2C− NK cell inhibition (in words),NKG2A+/NKG2C− NK cells; [1],mild inhibitory effects
same,percentage of CCL3+ NK cells,NKG2A+/NKG2C− NK cells; Trial 1,17.5%
same,percentage of CD107a+ NK cells,NKG2A+/NKG2C− NK cells; Trial 1,10.8%
same,percentage of IFNG+ NK cells,NKG2A+/NKG2C− NK cells; Trial 1,2.35%
same,percentage of TNF+ NK cells,NKG2A+/NKG2C− NK cells; Trial 1,0.83%
same,percentage of CCL3+ NK cells,NKG2A+/NKG2C− NK cells; Trial 2,34.9%
same,percentage of CD107a+ NK cells,NKG2A+/NKG2C− NK cells; Trial 2,13%
same,percentage of IFNG+ NK cells,NKG2A+/NKG2C− NK cells; Trial 2,2.85%
same,percentage of TNF+ NK cells,NKG2A+/NKG2C− NK cells; Trial 2,1.25%
same,percentage of CCL3+ NK cells,NKG2A+/NKG2C− NK cells; Trial 3,17.3%
same,percentage of CD107a+ NK cells,NKG2A+/NKG2C− NK cells; Trial 3,16.7%
same,percentage of IFNG+ NK cells,NKG2A+/NKG2C− NK cells; Trial 3,7.56%
same,percentage of TNF+ NK cells,NKG2A+/NKG2C− NK cells; Trial 3,3.94%
same,percentage of CCL3+ NK cells,NKG2A+/NKG2C− NK cells; Trial 4,13.3%
same,percentage of CD107a+ NK cells,NKG2A+/NKG2C− NK cells; Trial 4,15.1%
same,percentage of IFNG+ NK cells,NKG2A+/NKG2C− NK cells; Trial 4,2.41%
same,percentage of TNF+ NK cells,NKG2A+/NKG2C− NK cells; Trial 4,1.74%
same,percentage of CCL3+ NK cells,NKG2A+/NKG2C− NK cells; Trial 5,29.3%
same,percentage of CD107a+ NK cells,NKG2A+/NKG2C− NK cells; Trial 5,14.4%
same,percentage of IFNG+ NK cells,NKG2A+/NKG2C− NK cells; Trial 5,5.78%
same,percentage of TNF+ NK cells,NKG2A+/NKG2C− NK cells; Trial 5,2.47%
same,percentage of CCL3+ NK cells,NKG2A+/NKG2C− NK cells; Trial 6,16.2%
same,percentage of CD107a+ NK cells,NKG2A+/NKG2C− NK cells; Trial 6,14%
same,percentage of IFNG+ NK cells,NKG2A+/NKG2C− NK cells; Trial 6,3.48%
same,percentage of TNF+ NK cells,NKG2A+/NKG2C− NK cells; Trial 6,2.18%
same,effect on NKG2A−/NKG2C+ NK cell activation (in words),NKG2A−/NKG2C+ NK cells; [1],strong activating effects
same,percentage of CCL3+ NK cells,NKG2A−/NKG2C+ NK cells; Trial 1,80.9%
same,percentage of CD107+ NK cells,NKG2A−/NKG2C+ NK cells; Trial 1,80%
same,percentage of IFNG+ NK cells,NKG2A−/NKG2C+ NK cells; Trial 1,69.5%
same,percentage of TNF+ NK cells,NKG2A−/NKG2C+ NK cells; Trial 1,57.3%
same,percentage of CCL3+ NK cells,NKG2A−/NKG2C+ NK cells; Trial 2,92.4%
same,percentage of CD107+ NK cells,NKG2A−/NKG2C+ NK cells; Trial 2,87.3%
same,percentage of IFNG+ NK cells,NKG2A−/NKG2C+ NK cells; Trial 2,82.3%
same,percentage of TNF+ NK cells,NKG2A−/NKG2C+ NK cells; Trial 2,72.6%
same,percentage of CCL3+ NK cells,NKG2A−/NKG2C+ NK cells; Trial 3,86.1%
same,percentage of CD107+ NK cells,NKG2A−/NKG2C+ NK cells; Trial 3,88.3%
same,percentage of IFNG+ NK cells,NKG2A−/NKG2C+ NK cells; Trial 3,83%
same,percentage of TNF+ NK cells,NKG2A−/NKG2C+ NK cells; Trial 3,73.8%
same,percentage of CCL3+ NK cells,NKG2A−/NKG2C+ NK cells; Trial 4,71.8%
same,percentage of CD107+ NK cells,NKG2A−/NKG2C+ NK cells; Trial 4,71.7%
same,percentage of IFNG+ NK cells,NKG2A−/NKG2C+ NK cells; Trial 4,64.5%
same,percentage of TNF+ NK cells,NKG2A−/NKG2C+ NK cells; Trial 4,56.2%
same,percentage of CCL3+ NK cells,NKG2A−/NKG2C+ NK cells; Trial 5,75.8%
same,percentage of CD107+ NK cells,NKG2A−/NKG2C+ NK cells; Trial 5,69.9%
same,percentage of IFNG+ NK cells,NKG2A−/NKG2C+ NK cells; Trial 5,63.2%
same,percentage of TNF+ NK cells,NKG2A−/NKG2C+ NK cells; Trial 5,57.8%
same,percentage of CCL3+ NK cells,NKG2A−/NKG2C+ NK cells; Trial 6,62.1%
same,percentage of CD107+ NK cells,NKG2A−/NKG2C+ NK cells; Trial 6,59.3%
same,percentage of IFNG+ NK cells,NKG2A−/NKG2C+ NK cells; Trial 6,50.7%
same,percentage of TNF+ NK cells,NKG2A−/NKG2C+ NK cells; Trial 6,41.1%
same,percentage CCL3+ NK cells,NKG2A−/NKG2C− NK cells; Trial 1,31.9%
same,percentage CD107+ NK cells,NKG2A−/NKG2C− NK cells; Trial 1,26.1%
same,percentage TNF+ NK cells,NKG2A−/NKG2C− NK cells; Trial 1,4.12%
same,percentage of IFNG+ NK cells,NKG2A−/NKG2C− NK cells; Trial 1,16.2%
same,percentage CCL3+ NK cells,NKG2A−/NKG2C− NK cells; Trial 2,57.4%
same,percentage CD107+ NK cells,NKG2A−/NKG2C− NK cells; Trial 2,34.1%
same,percentage TNF+ NK cells,NKG2A−/NKG2C− NK cells; Trial 2,8.51%
same,percentage of IFNG+ NK cells,NKG2A−/NKG2C− NK cells; Trial 2,24.9%
same,percentage CCL3+ NK cells,NKG2A−/NKG2C− NK cells; Trial 3,49.9%
same,percentage CD107+ NK cells,NKG2A−/NKG2C− NK cells; Trial 3,46.1%
same,percentage TNF+ NK cells,NKG2A−/NKG2C− NK cells; Trial 3,15.8%
same,percentage of IFNG+ NK cells,NKG2A−/NKG2C− NK cells; Trial 3,37.4%
same,percentage CCL3+ NK cells,NKG2A−/NKG2C− NK cells; Trial 4,34.8%
same,percentage CD107+ NK cells,NKG2A−/NKG2C− NK cells; Trial 4,30.1%
same,percentage TNF+ NK cells,NKG2A−/NKG2C− NK cells; Trial 4,9.02%
same,percentage of IFNG+ NK cells,NKG2A−/NKG2C− NK cells; Trial 4,18.9%
same,percentage CCL3+ NK cells,NKG2A−/NKG2C− NK cells; Trial 5,25.6%
same,percentage CD107+ NK cells,NKG2A−/NKG2C− NK cells; Trial 5,18.1%
same,percentage TNF+ NK cells,NKG2A−/NKG2C− NK cells; Trial 5,6.52%
same,percentage of IFNG+ NK cells,NKG2A−/NKG2C− NK cells; Trial 5,13.9%
same,percentage CCL3+ NK cells,NKG2A−/NKG2C− NK cells; Trial 6,24.6%
same,percentage CD107+ NK cells,NKG2A−/NKG2C− NK cells; Trial 6,19.1%
same,percentage TNF+ NK cells,NKG2A−/NKG2C− NK cells; Trial 6,5.25%
same,percentage of IFNG+ NK cells,NKG2A−/NKG2C− NK cells; Trial 6,10%
same,binding of peptide-HLA-E complex to CD94/NKG2A normalized to a fitted Rmax,CD94/NKG2A; CD94/NKG2A concentration 0 μM,−0.007
same,binding of peptide-HLA-E complex to CD94/NKG2A normalized to a fitted Rmax,CD94/NKG2A; CD94/NKG2A concentration 0.1 μM,0.023
same,binding of peptide-HLA-E complex to CD94/NKG2A normalized to a fitted Rmax,CD94/NKG2A; CD94/NKG2A concentration 0.2 μM,0.046
same,binding of peptide-HLA-E complex to CD94/NKG2A normalized to a fitted Rmax,CD94/NKG2A; CD94/NKG2A concentration 0.4 μM,0.094
same,binding of peptide-HLA-E complex to CD94/NKG2A normalized to a fitted Rmax,CD94/NKG2A; CD94/NKG2A concentration 0.8 μM,0.173
same,binding of peptide-HLA-E complex to CD94/NKG2A normalized to a fitted Rmax,CD94/NKG2A; CD94/NKG2A concentration 1.6 μM,0.293
same,binding of peptide-HLA-E complex to CD94/NKG2A normalized to a fitted Rmax,CD94/NKG2A; CD94/NKG2A concentration 3.2 μM,0.450
same,binding of peptide-HLA-E complex to CD94/NKG2A normalized to a fitted Rmax,CD94/NKG2A; CD94/NKG2A concentration 6.4 μM,0.618
same,binding of peptide-HLA-E complex to CD94/NKG2A normalized to a fitted Rmax,CD94/NKG2A; CD94/NKG2A concentration 12.8 μM,0.766
same,binding of peptide-HLA-E complex to CD94/NKG2A normalized to a fitted Rmax,CD94/NKG2A; CD94/NKG2A concentration 25.6 μM,0.873
same,binding of peptide-HLA-E complex to CD94/NKG2A normalized to a fitted Rmax,CD94/NKG2A; CD94/NKG2A concentration 51.2 μM,0.942
same,binding of peptide-HLA-E complex to CD94/NKG2A normalized to a fitted Rmax,CD94/NKG2A; CD94/NKG2A concentration 102.4 μM,0.954
same,Binding of peptide-HLA-E complexes to CD94/NKG2A normalized to a theoretical Rmax,CD94/NKG2A; CD94/NKG2A analyte concentration 0.000 μM,−0.005
same,Binding of peptide-HLA-E complexes to CD94/NKG2A normalized to a theoretical Rmax,CD94/NKG2A; CD94/NKG2A analyte concentration 0.100 μM,0.017
same,Binding of peptide-HLA-E complexes to CD94/NKG2A normalized to a theoretical Rmax,CD94/NKG2A; CD94/NKG2A analyte concentration 0.200 μM,0.034
same,Binding of peptide-HLA-E complexes to CD94/NKG2A normalized to a theoretical Rmax,CD94/NKG2A; CD94/NKG2A analyte concentration 0.400 μM,0.070
same,Binding of peptide-HLA-E complexes to CD94/NKG2A normalized to a theoretical Rmax,CD94/NKG2A; CD94/NKG2A analyte concentration 0.800 μM,0.131
same,Binding of peptide-HLA-E complexes to CD94/NKG2A normalized to a theoretical Rmax,CD94/NKG2A; CD94/NKG2A analyte concentration 1.600 μM,0.221
same,Binding of peptide-HLA-E complexes to CD94/NKG2A normalized to a theoretical Rmax,CD94/NKG2A; CD94/NKG2A analyte concentration 3.200 μM,0.339
same,Binding of peptide-HLA-E complexes to CD94/NKG2A normalized to a theoretical Rmax,CD94/NKG2A; CD94/NKG2A analyte concentration 6.400 μM,0.465
same,Binding of peptide-HLA-E complexes to CD94/NKG2A normalized to a theoretical Rmax,CD94/NKG2A; CD94/NKG2A analyte concentration 12.800 μM,0.577
same,Binding of peptide-HLA-E complexes to CD94/NKG2A normalized to a theoretical Rmax,CD94/NKG2A; CD94/NKG2A analyte concentration 25.600 μM,0.657
same,Binding of peptide-HLA-E complexes to CD94/NKG2A normalized to a theoretical Rmax,CD94/NKG2A; CD94/NKG2A analyte concentration 51.200 μM,0.709
same,Binding of peptide-HLA-E complexes to CD94/NKG2A normalized to a theoretical Rmax,CD94/NKG2A; CD94/NKG2A analyte concentration 102.400 μM,0.718
